These results are taken from the OligoGym collection.

One data set addresses HBV. The following applies: ASO.
A further data set concerns the target DGAT2. The note with it: ASO.

Values joined by “and” are separate entries in the source; they are usually repeats but may differ in a detail not shown here. Equal values may be shown once. After the bases stand the sugars from the 5' end (letter, count) and the backbone: PS all phosphorothioate, else s phosphorothioate and o phosphodiester by linkage. HELM strings list units from the 5' end as sugar, base in round brackets, then linkage (d deoxyribose, r ribose, m 2'-O-methyl, p phosphodiester). Methylation of C is not given here. [moe] = 2'-O-(2-methoxyethyl) (MOE); [cEt] = constrained ethyl (cEt); [sp] = phosphorothioate linkage; e = 2'-O-(2-methoxyethyl) (MOE); d = 2'-deoxy (DNA)

Turning to “RNA1{[moe](C)[sp].[moe](T)[sp].[moe](A)[sp].[moe](G)[sp].d(T)[sp].d(A)[sp].d(A)[sp].d(A)[sp].d(C)[sp].d(T)[sp].d(G)[sp].d(A)[sp].d(G)[sp].[moe](C)[sp].[moe](C)[sp].[moe](A)}$$$$V2.0”, in the data set with HBV (HepG2, 0.07 µM), the target mRNA inhibition is 66% and 65%.

“RNA1{[moe](A)[sp].[moe](T)[sp].d(G)[sp].d(A)[sp].d(G)[sp].d(G)[sp].d(C)[sp].d(A)[sp].d(T)[sp].d(A)[sp].d(G)[sp].[moe](C)[sp].[moe](A)[sp].[moe](G)[sp].[moe](C)[sp].[moe](A)}$$$$V2.0”: the target mRNA inhibition with HBV (HepG2, 0.07 µM) is 53% and 32%.

“RNA1{[moe](C)[sp].[cEt](A)[sp].[cEt](C)[sp].d(T)[sp].d(G)[sp].d(A)[sp].d(A)[sp].d(C)[sp].d(A)[sp].d(A)[sp].d(A)[sp].d(T)[sp].d(G)[sp].[cEt](G)[sp].[cEt](C)[sp].[moe](A)}$$$$V2.0”: the target mRNA inhibition with HBV (HepG2, 0.07 µM) is 65% and 75%.

For “RNA1{[moe](G)[sp].[cEt](A)[sp].[cEt](G)[sp].d(A)[sp].d(G)[sp].d(A)[sp].d(A)[sp].d(G)[sp].d(T)[sp].d(C)[sp].d(C)[sp].d(A)[sp].d(C)[sp].[cEt](C)[sp].[cEt](A)[sp].[moe](C)}$$$$V2.0”, the target mRNA inhibition with HBV (HepG2, 0.07 µM) is 65% and 63%.

“RNA1{[moe](A)[sp].[moe](G)[sp].[moe](G)[sp].[moe](C)[sp].[moe](A)[sp].d(T)[sp].d(A)[sp].d(G)[sp].d(C)[sp].d(A)[sp].d(G)[sp].d(C)[sp].d(A)[sp].d(G)[sp].[moe](G)[sp].[moe](A)}$$$$V2.0”: the target mRNA inhibition is 9% in the data set with HBV (HepG2, 0.0092593 µM); 13% in the data set with HBV (HepG2, 0.0277778 µM); 66% and 56% with HBV (HepG2, 0.07 µM); 29% with HBV (HepG2, 0.0833333 µM); 51% with HBV (HepG2, 0.25 µM).

On to “RNA1{[moe](G)[sp].[moe](C)[sp].[moe](A)[sp].d(C)[sp].d(T)[sp].d(A)[sp].d(G)[sp].d(T)[sp].d(A)[sp].d(A)[sp].d(A)[sp].d(C)[sp].[moe](T)[sp].[moe](G)[sp].[moe](A)[sp].[moe](G)}$$$$V2.0”, for which the target mRNA inhibition with HBV (HepG2, 0.07 µM) turned out to be 59%.

In the case of “RNA1{[moe](G)[sp].[cEt](T)[sp].[cEt](G)[sp].d(A)[sp].d(A)[sp].d(G)[sp].d(C)[sp].d(G)[sp].d(A)[sp].d(A)[sp].d(G)[sp].d(T)[sp].d(G)[sp].[cEt](C)[sp].[cEt](A)[sp].[moe](C)}$$$$V2.0”, the target mRNA inhibition with HBV (HepG2, 0.07 µM) is 68% and 75%.

In the case of “RNA1{[moe](A)[sp].[moe](G)[sp].[moe](T)[sp].[moe](T)[sp].[moe](C)[sp].d(C)[sp].d(G)[sp].d(C)[sp].d(A)[sp].d(G)[sp].d(T)[sp].d(A)[sp].d(T)[sp].d(G)[sp].[moe](G)[sp].[moe](A)}$$$$V2.0”, in the data set with HBV (HepG2, 0.07 µM), the target mRNA inhibition was 61% and 40%.

“RNA1{[moe](G)[sp].[cEt](T)[sp].d(C)[sp].d(C)[sp].d(A)[sp].d(C)[sp].d(C)[sp].d(A)[sp].d(C)[sp].d(G)[sp].d(A)[sp].d(G)[sp].[cEt](T)[sp].[moe](C)[sp].[cEt](T)[sp].[moe](A)}$$$$V2.0”: in the data set with HBV (HepG2, 0.07 µM), the target mRNA inhibition is 51% and 38%.

Turning to “RNA1{[moe](C)[sp].[moe](C)[sp].[moe](G)[sp].[moe](C)[sp].d(A)[sp].d(G)[sp].d(T)[sp].d(A)[sp].d(T)[sp].d(G)[sp].d(G)[sp].d(A)[sp].d(T)[sp].[moe](C)[sp].[moe](G)[sp].[moe](G)}$$$$V2.0”, the target mRNA inhibition in the data set with HBV (HepG2, 0.07 µM) was 76% and 71%.

Take “RNA1{[moe](C)[sp].[moe](G)[sp].[moe](T)[sp].d(G)[sp].d(C)[sp].d(A)[sp].d(G)[sp].d(A)[sp].d(G)[sp].d(G)[sp].d(T)[sp].d(G)[sp].d(A)[sp].[cEt](A)[sp].[cEt](G)[sp].[cEt](C)}$$$$V2.0”: the target mRNA inhibition with HBV (HepG2, 0.07 µM) was 72% and 60%.

“RNA1{[moe](A)[sp].[moe](T)[sp].[moe](G)[sp].[moe](A)[sp].[moe](G)[sp].d(G)[sp].d(C)[sp].d(A)[sp].d(T)[sp].d(A)[sp].d(G)[sp].d(C)[sp].d(A)[sp].d(G)[sp].[moe](C)[sp].[moe](A)}$$$$V2.0”: the target mRNA inhibition with HBV (HepG2, 0.07 µM) is 52% and 56%.

Turning to “RNA1{[moe](G)[sp].[cEt](T)[sp].d(G)[sp].d(C)[sp].d(A)[sp].d(G)[sp].d(A)[sp].d(G)[sp].d(G)[sp].d(T)[sp].d(G)[sp].d(A)[sp].[cEt](A)[sp].[moe](G)[sp].[cEt](C)[sp].[moe](G)}$$$$V2.0”, the target mRNA inhibition is 14% with HBV (HepG2, 0.0092593 µM); 33% with HBV (HepG2, 0.0277778 µM); 74% and 83% in the data set with HBV (HepG2, 0.07 µM); 70% with HBV (HepG2, 0.0833333 µM); 77% with HBV (HepG2, 0.25 µM).

With “RNA1{[moe](G)[sp].[moe](A)[sp].d(G)[sp].d(T)[sp].d(T)[sp].d(C)[sp].d(C)[sp].d(G)[sp].d(C)[sp].d(A)[sp].d(G)[sp].[moe](T)[sp].[moe](A)[sp].[moe](T)[sp].[moe](G)[sp].[moe](G)}$$$$V2.0”, the target mRNA inhibition with HBV (HepG2, 0.07 µM) is 52% and 45%.

On to “RNA1{[moe](A)[sp].[moe](A)[sp].[moe](G)[sp].d(T)[sp].d(C)[sp].d(C)[sp].d(A)[sp].d(C)[sp].d(C)[sp].d(A)[sp].d(C)[sp].d(G)[sp].d(A)[sp].[cEt](G)[sp].[cEt](T)[sp].[cEt](C)}$$$$V2.0”, for which the target mRNA inhibition with HBV (HepG2, 0.07 µM) is 19% and 25%.

With “RNA1{[moe](G)[sp].[moe](T)[sp].[moe](G)[sp].d(A)[sp].d(A)[sp].d(G)[sp].d(C)[sp].d(G)[sp].d(A)[sp].d(A)[sp].d(G)[sp].d(T)[sp].[moe](G)[sp].[moe](C)[sp].[moe](A)[sp].[moe](C)}$$$$V2.0”, the target mRNA inhibition in the data set with HBV (HepG2, 0.07 µM) was 70% and 68%.

Regarding “RNA1{[moe](G)[sp].[moe](G)[sp].[moe](C)[sp].d(A)[sp].d(T)[sp].d(A)[sp].d(G)[sp].d(C)[sp].d(A)[sp].d(G)[sp].d(C)[sp].d(A)[sp].d(G)[sp].[cEt](G)[sp].[cEt](A)[sp].[cEt](T)}$$$$V2.0”, the target mRNA inhibition with HBV (HepG2, 0.07 µM) is 56% and 44%.

For the substance “RNA1{[moe](C)[sp].[moe](A)[sp].d(G)[sp].d(A)[sp].d(G)[sp].d(G)[sp].d(T)[sp].d(G)[sp].d(A)[sp].d(A)[sp].d(G)[sp].[moe](C)[sp].[moe](G)[sp].[moe](A)[sp].[moe](A)[sp].[moe](G)}$$$$V2.0”, the target mRNA inhibition in the data set with HBV (HepG2, 0.07 µM) is 35% and 36%.

As for “RNA1{[moe](G)[sp].[moe](G)[sp].[moe](T)[sp].d(G)[sp].d(A)[sp].d(A)[sp].d(G)[sp].d(C)[sp].d(G)[sp].d(A)[sp].d(A)[sp].d(G)[sp].d(T)[sp].[cEt](G)[sp].[cEt](C)[sp].[cEt](A)}$$$$V2.0”, the target mRNA inhibition with HBV (HepG2, 0.0092593 µM) was 15%; with HBV (HepG2, 0.0277778 µM) it was 42%; with HBV (HepG2, 0.07 µM) it was 72% and 83%; with HBV (HepG2, 0.0833333 µM) it was 67%; with HBV (HepG2, 0.25 µM), 88%.

Regarding “CTCAGTCACTGACTCACAAC (sugars e5 d10 e5, PS)”, the target mRNA inhibition with DGAT2 (HepG2, 2.5 µM) was found to be 54%; with DGAT2 (HepG2, 10 µM), 88%.

In the case of “CTAAGCTTATTAGGTGTCTT (sugars e5 d10 e5, PS)”, the target mRNA inhibition amounted to 68% in the data set with DGAT2 (HepG2, 2.5 µM) and 81% with DGAT2 (HepG2, 10 µM).
